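Compound exposure: 48 hours, 5 concentrations, 96-well plates. TGI: concentration producing complete growth inhibition.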 Where a SMILES comes first, the peptide text is derived from it. The star is where a group is joined. Cbz = O=C(OCc1ccccc1)*
Experiments:
Assay in all cases: DTP human tumour cell line panel, 48 h
[1] = test system: OVCAR-3 ovarian
[2] = test system: OVCAR-5 ovarian
[3] = test system: HCT-116 colon
[4] = test system: NCI-H522 lung
[5] = test system: A549 NSCLC
[6] = test system: RPMI-8226 leukemia
[7] = test system: HT29 colon
[8] = test system: M14 melanoma
[9] = test system: SF-268 CNS
[10] = test system: LOX IMVI melanoma
[11] = test system: HS 578T breast
[12] = test system: TK-10 renal

Row | SMILES | TGI [1] [µM] | TGI [2] [µM] | TGI [3] [µM] | TGI [4] [µM] | TGI [5] [µM] | TGI [6] [µM] | TGI [7] [µM] | TGI [8] [µM] | TGI [9] [µM] | TGI [10] [µM] | TGI [11] [µM] | TGI [12] [µM]
1 | CCCCC1Cc2cc(O)ccc2-c2nc3cc(O)ccc3n21 (stereo unspecified) (tested in a mixture with another compound) | 77.7 | 34.8 | 27 | 25 | 38.6 | 31.5 | 31.9 | 28.6 | 33.3 | 30.9 | 35.1 | 43.3
2 | CCOC(=O)CCC(NC(=O)C(Cc1ccccc1)NC(=O)OCc1ccccc1)C(=O)OCC (stereo not drawn) (Cbz-Phe-Glu(OEt)-OEt; configuration not given here) | 28.6 | 32.6 | 32.1 | 29.6 | 36.9 | > 76 | 42.1 | 29.3 | 34.5 | 27.9 | 35 | 34.6
3 | Oc1c(Br)ccc2cccnc12 | > 23.3 | > 100 | > 100 | 6.21 | > 100 | > 27.9 | > 35.8 | > 32.5 | > 100 | > 28.5 | 72.5 | > 100

— PubChem BioAssay (NCI)
